Experimental data from the supplement of paper PMC10307832.

Tests used:
Assay in all cases: relative viability (nuclei count vs DMSO), 5 days (fraction); higher = more cells survive
[1] = compound: C[C@@H](N)c1ccc(C(=O)Nc2ccnc3[nH]ccc23)cc1 + CCNC(=O)c1noc(-c2cc(C(C)C)c(O)cc2O)c1-c1ccc(CN2CCOCC2)cc1 [Luminespib] (partner 0.01 µM)
Procedure, shortened: (§1)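 Five library-drug doses in √10 steps were combined with a fixed anchor-drug dose, or a single drug was given alone, by pin tool to lung cancer cell lines in 1536-well plates the day after seeding. Nuclei were stained and counted after 5 days. Relative viability is the nuclei count in treated wells over that in vehicle wells, taken as the median of duplicate plates.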

[2] = compound: C[C@@H](N)c1ccc(C(=O)Nc2ccnc3[nH]ccc23)cc1 + COc1cc2c(Oc3ccc(NC(=O)C4(C(=O)Nc5ccc(F)cc5)CC4)cc3F)ccnc2cc1OCCCN1CCOCC1 [Foretinib] (partner 0.25 µM)
Procedure, shortened: as §1

Tanzisertib + OSI-027 = compound: O[C@H]1CC[C@H](Nc2ncc3nc(Nc4c(F)cc(F)cc4F)n([C@H]4CCOC4)c3n2)CC1 [Tanzisertib] + COc1cccc2cc(-c3nc([C@H]4CC[C@H](C(=O)O)CC4)n4ncnc(N)c34)[nH]c12 [OSI-027] (partner 0.5 µM)
Procedure, shortened: as §1

Tanzisertib + Pemetrexed = compound: O[C@H]1CC[C@H](Nc2ncc3nc(Nc4c(F)cc(F)cc4F)n([C@H]4CCOC4)c3n2)CC1 [Tanzisertib] + Nc1nc2[nH]cc(CCc3ccc(C(=O)N[C@@H](CCC(=O)O)C(=O)O)cc3)c2c(=O)[nH]1 [Pemetrexed] (partner 0.2 µM)
Procedure, shortened: as §1

With UMC-11 the relative viability ([1]; first compound 0.04 µM) was 1.08, the relative viability ([1]; first compound 0.1265 µM) was 1.06 and the relative viability ([1]; first compound 0.4 µM) was 1.04. The relative viability ([1]; first compound 1.265 µM) was 0.989, the relative viability ([1]; first compound 4 µM) was 0.826 and the relative viability ([2]; first compound 0.04 µM) was 1.14. The relative viability ([2]; first compound 0.1265 µM) was 1.1, the relative viability ([2]; first compound 0.4 µM) was 1.12 and the relative viability ([2]; first compound 1.265 µM) was 1. It also gave a relative viability ([2]; first compound 4 µM) of 0.694, a relative viability (Tanzisertib + OSI-027; first compound 0.08 µM) of 0.532 and a relative viability (Tanzisertib + OSI-027; first compound 0.253 µM) of 0.391. It also gave a relative viability (Tanzisertib + OSI-027; first compound 0.8 µM) of 0.537, a relative viability (Tanzisertib + OSI-027; first compound 2.53 µM) of 0.439 and a relative viability (Tanzisertib + OSI-027; first compound 8 µM) of 0.477. It also gave a relative viability (Tanzisertib + Pemetrexed; first compound 0.08 µM) of 0.801, a relative viability (Tanzisertib + Pemetrexed; first compound 0.253 µM) of 0.793 and a relative viability (Tanzisertib + Pemetrexed; first compound 0.8 µM) of 0.784. For the same cell line, the relative viability (Tanzisertib + Pemetrexed; first compound 2.53 µM) was 0.816 and the relative viability (Tanzisertib + Pemetrexed; first compound 8 µM) was 0.833.
